Measured values as given in patent publication US9556179B2 (BRISTOL-MYERS SQUIBB COMPANY, priority 2012, dated 2017).

Tests used:
CK1ε = CK1ε (Homo sapiens (Human), UniProt P49674); test: CK1ε kinase assay (Caliper LABCHIP electrophoretic separation of fluoresceinated peptide substrate and product); format: biochemical; settings: 200 pM enzyme, 50 μM ATP, 22 hours at room temperature
Method in brief: (§1)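 Incubated for twenty-two hours at ambient temperature, then quenched with EDTA and analyzed by electrophoretic separation of unphosphorylated and phosphorylated peptide.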

CK1δ = CK1δ (Homo sapiens (Human), UniProt P48730); test: CK1δ kinase assay (Caliper LABCHIP electrophoretic separation of fluoresceinated peptide substrate and product); format: biochemical; settings: 200 pM enzyme, 50 μM ATP, 22 hours at room temperature
Method in brief: as §1

CK1δ, sequence (P48730 whole entry): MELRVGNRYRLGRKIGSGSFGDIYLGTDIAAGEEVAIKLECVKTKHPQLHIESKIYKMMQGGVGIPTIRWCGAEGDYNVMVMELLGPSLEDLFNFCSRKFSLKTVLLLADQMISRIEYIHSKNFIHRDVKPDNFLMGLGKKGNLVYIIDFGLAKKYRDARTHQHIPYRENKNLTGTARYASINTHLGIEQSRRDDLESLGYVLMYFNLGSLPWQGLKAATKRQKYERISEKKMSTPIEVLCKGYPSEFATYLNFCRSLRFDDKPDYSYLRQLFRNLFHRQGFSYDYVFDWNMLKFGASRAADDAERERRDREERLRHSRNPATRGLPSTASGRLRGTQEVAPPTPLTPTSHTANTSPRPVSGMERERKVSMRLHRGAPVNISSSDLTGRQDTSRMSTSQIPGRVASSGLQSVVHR
CK1ε, sequence (P49674 whole entry): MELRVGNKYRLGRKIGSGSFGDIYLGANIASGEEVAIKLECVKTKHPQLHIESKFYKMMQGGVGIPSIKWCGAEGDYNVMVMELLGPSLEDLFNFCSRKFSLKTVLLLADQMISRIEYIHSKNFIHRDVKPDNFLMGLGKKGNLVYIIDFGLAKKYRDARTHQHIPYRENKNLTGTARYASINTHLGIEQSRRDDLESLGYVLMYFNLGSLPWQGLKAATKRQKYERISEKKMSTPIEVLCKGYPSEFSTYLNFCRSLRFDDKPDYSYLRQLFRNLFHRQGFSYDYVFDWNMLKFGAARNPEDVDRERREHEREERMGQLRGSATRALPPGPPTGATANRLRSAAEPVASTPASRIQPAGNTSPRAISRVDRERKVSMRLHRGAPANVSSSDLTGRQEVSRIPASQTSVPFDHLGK

Structure (SMILES) | IC50 (CK1ε) [nM] | IC50 (CK1δ) [nM]
CC(C)(O)C(=O)N1CCC(n2cnc(-c3ccc(F)cc3)c2-c2ccc3nc(NC(=O)c4ccnc(F)c4)cn3n2)CC1 [Compound 55, 2-fluoro-N-(6-(4-(4-fluorophenyl)-1-(1-(2-hydroxy-2-methylpropanoyl)piperidin-4-yl)-1H-imidazol-5-yl)imidazo[1,2-b]pyridazin-2-yl)isonicotinamide] | 1.05 | 0.178
O=C(Nc1cn2nc(-c3c(-c4ccc(F)cc4)ncn3C3CCN(C(=O)c4ccncc4)CC3)ccc2n1)c1ccnc(F)c1 [Compound 56, 2-fluoro-N-(6-(4-(4-fluorophenyl)-1-(1 isonicotinoylpiperidin-4-yl)-1H-imidazol-5-yl)imidazo[1,2-b]pyridazin-2-yl)isonicotinamide] | 0.297 | 0.13
Cc1oncc1C(=O)N1CCC(n2cnc(-c3ccc(F)cc3)c2-c2ccc3nc(NC(=O)c4ccnc(F)c4)cn3n2)CC1 [Compound 62, 2-fluoro-N-(6-(4-(4-fluorophenyl)-1-(1-(5-methylisoxazole-4-carbonyl)piperidin-4-yl)-1H-imidazol-5-yl)imidazo[1,2-b]pyridazin-2-yl)isonicotinamide] | 0.256 | 0.313
O=C(Nc1cn2nc(-c3c(-c4ccc(F)cc4)ncn3C3CCN(C(=O)C4CC4(F)F)CC3)ccc2n1)c1ccnc(F)c1 (centres unmarked) [Compound 65, N-(6-(1-(1-(2,2-difluorocyclopropanecarbonyl)piperidin-4-yl)-4-(4-fluorophenyl)-1H-imidazol-5-yl)imidazo[1,2-b]pyridazin-2-yl)-2-fluoroisonicotinamide] | 1.37 | 0.256
O=C(Nc1cn2nc(-c3c(-c4ccc(F)cc4)ncn3C3CCN(C(=O)CCCl)CC3)ccc2n1)c1ccnc(F)c1 [Compound 70, N-(6-(1-(1-(3-chloropropanoyl)piperidin-4-yl)-4-(4-fluorophenyl)-1H-imidazol-5-yl)imidazo[1,2-b]pyridazin-2-yl)-2-fluoroisonicotinamide] | 0.493 | 0.143
N#CC1(C(=O)N2CCC(n3cnc(-c4ccc(F)cc4)c3-c3ccc4nc(NC(=O)c5ccnc(F)c5)cn4n3)CC2)CC1 [Compound 71, N-(6-(1-(1-(1-cyanocyclopropanecarbonyl)piperidin-4-yl)-4-(4-fluorophenyl)-1H-imidazol-5-yl)imidazo[1,2-b]pyridazin-2-yl)-2-fluoroisonicotinamide] | 0.676 | 0.172
O=C(Nc1cn2nc(-c3c(-c4ccc(F)cc4)ncn3C3CCN(C(=O)c4c[nH]cn4)CC3)ccc2n1)c1ccnc(F)c1 [Compound 72, N-(6-(1-(1-(1H-imidazole-4-carbonyl)piperidin-4-yl)-4-(4-fluorophenyl)-1H-imidazol-5-yl)imidazo(1,2-b]pyridazin-2-yl)-2-fluoroisonicotinamide] | 0.559 | 0.183
O=C(Nc1cn2nc(-c3c(-c4ccc(F)cc4)ncn3C3CCN(C(=O)c4ccns4)CC3)ccc2n1)c1ccnc(F)c1 [Compound 73, 2-fluoro-N-(6-(4-(4-fluorophenyl)-1-(1-(isothiazole-5-carbonyl)piperidin-4-yl)-1H-imidazol-5-yl)imidazo[1,2-b]pyridazin-2-yl)isonicotinamide] | 0.608 | 0.354
O=C(Nc1cn2nc(-c3c(-c4ccc(F)cc4)ncn3C3CCN(S(=O)(=O)C4CC4)CC3)ccc2n1)c1ccnc(F)c1 [Compound 74, N-(6-(1-(1-(cyclopropylsulfonyl)piperidin-4-yl)-4-(4-fluorophenyl)-1H-imidazol-5-yl)imidazo[1,2-b]pyridazin-2-yl)-2-fluoroisonicotinamide] | 1.52 | 0.675
CC(C)(C)COC(=O)N1CCC(n2cnc(-c3ccc(F)cc3)c2-c2ccc3nc(NC(=O)c4ccnc(F)c4)cn3n2)CC1 [Compound 75, neopentyl 4-(5-(2-(2-fluoroisonicotinamido)imidazo[1,2-b]pyridazin-6-yl)-4-(4-fluorophenyl)-1H-imidazol-1-yl)piperidine-1-carboxylate] | 3.49 | 1.4
O=C(Nc1cn2nc(-c3c(-c4ccc(F)cc4)ncn3C3CCN(C(=O)OC4CCCC4)CC3)ccc2n1)c1ccnc(F)c1 [Compound 77, cyclopentyl 4-(5-(2-(2-fluoroisonicotinamido)imidazo[1,2-b]pyridazin-6-yl)-4-(4-fluorophenyl)-1H-imidazol-1-yl)piperidine-1-carboxylate] | 14 | 0.744
O=C(Nc1cn2nc(-c3c(-c4ccc(F)cc4)ncn3C3CCN(C(=O)OC4CCOCC4)CC3)ccc2n1)c1ccnc(F)c1 [Compound 81, tetrahydro-2H-pyran-4-yl 4-(5-(2-(2-fluoroisonicotinamido)imidazo[1,2-b]pyridazin-6-yl)-4-(4-fluorophenyl)-1H-imidazol-1-yl)piperidine-1-carboxylate] | 1.63 | 0.311

More lines, in order of falling IC50 (CK1ε), values ahead:

IC50 (CK1ε) [nM] | IC50 (CK1δ) [nM] | Structure (SMILES)
7.2 | 0.928 | CC1(C)CC1C(=O)N1CCC(n2cnc(-c3ccc(F)cc3)c2-c2ccc3nc(NC(=O)c4ccnc(F)c4)cn3n2)CC1 (centres unmarked) [Compound 66, N-(6-(1-(1-(2,2-dimethylcyclopropanecarbonyl)piperidin-4-yl)-4-(4-fluorophenyl)-1H-imidazol-5-yl)imidazo[1,2-6]pyridazin-2-yl)-2-fluoroisonicotinamide]
3.42 | 0.321 | Cc1noc(C)c1C(=O)N1CCC(n2cnc(-c3ccc(F)cc3)c2-c2ccc3nc(NC(=O)c4ccnc(F)c4)cn3n2)CC1 [Compound 57, N-(6-(1-(1-(3,5-dimethylisoxazole-4-carbonyl)piperidin-4-yl)-4-(4-fluorophenyl)-1H-imidazol-5-yl)imidazo[1,2-b]pyridazin-2-yl)-2-fluoroisonicotinamide]
3.09 | 0.446 | CC(C)(C)C(=O)N1CCC(n2cnc(-c3ccc(F)cc3)c2-c2ccc3nc(NC(=O)c4ccnc(F)c4)cn3n2)CC1 [Compound 54, 2-fluoro-N-(6-(4-(4-fluorophenyl)-1-(1-pivaloylpiperidin-4-yl)-1H-imidazol-5-yl)imidazo[1,2-b]pyridazin-2-yl)isonicotinamide]
2.23 | 0.295 | O=C(Nc1cn2nc(-c3c(-c4ccc(F)cc4)ncn3C3CCN(C(=O)OCC4CC4)CC3)ccc2n1)c1ccnc(F)c1 [Compound 78, cyclopropylmethyl 4-(5-(2-(2-fluoroisonicotinamido)imidazo[1,2-b]pyridazin-6-yl)-4-(4-fluorophenyl)-1H-imidazol-1-yl)piperidine-1-carboxylate]
1.97 | 0.579 | O=C(Nc1cn2nc(-c3c(-c4ccc(F)cc4)ncn3C3CCN(C(=O)CCC(F)(F)F)CC3)ccc2n1)c1ccnc(F)c1 [Compound 59, 2-fluoro-N-(6-(4-(4-fluorophenyl)-1-(1-(4,4,4-trifluorobutanoyl)piperidin-4-yl)-1H-imidazol-5-yl)imidazo[1,2-b]pyridazin-2-yl)isonicotinamide]
1.91 | 0.376 | CC(C)COC(=O)N1CCC(n2cnc(-c3ccc(F)cc3)c2-c2ccc3nc(NC(=O)c4ccnc(F)c4)cn3n2)CC1 [Compound 79, isobutyl 4-(5-(2-(2-fluoroisonicotinamido)imidazo[1,2-b]pyridazin-6-yl)-4-(4-fluorophenyl)-1H-imidazol-1-yl)piperidine-1-carboxylate]
1.8 | 0.251 | CC(C)OC(=O)N1CCC(n2cnc(-c3ccc(F)cc3)c2-c2ccc3nc(NC(=O)c4ccnc(F)c4)cn3n2)CC1 [Compound 76, isopropyl 4-(5-(2-(2-fluoroisonicotinamido)imidazo[1,2-b]pyridazin-6-yl)-4-(4-fluorophenyl)-1H-imidazol-1-yl)piperidine-1-carboxylate]
1.56 | 0.191 | O=C(Nc1cn2nc(-c3c(-c4ccc(F)cc4)ncn3C3CCN(C(=O)c4ccc(F)cc4)CC3)ccc2n1)c1ccnc(F)c1 [Compound 53, 2-fluoro-N-(6-(1-(1-(4-fluorobenzoyl)piperidin-4-yl)-4-(4-fluorophenyl)-1H-imidazol-5-yl)imidazo[1,2-b]pyridazin-2-yl)isonicotinamide]
1.26 | 0.186 | O=C(Nc1cn2nc(-c3c(-c4ccc(F)cc4)ncn3C3CCN(C(=O)CN4CCOCC4)CC3)ccc2n1)c1ccnc(F)c1 [Compound 61, 2-fluoro-N-(6-(4-(4-fluorophenyl)-1-(1-(2-morpholinoacetyl)piperidin-4-yl)-1H-imidazol-5-yl)imidazo[1,2-b]pyridazin-2-yl)isonicotinamide]
0.809 | 0.171 | O=C(Nc1cn2nc(-c3c(-c4ccc(F)cc4)ncn3C3CCN(C(=O)OC4COC4)CC3)ccc2n1)c1ccnc(F)c1 [Compound 80, oxetan-3-yl 4-(5-(2-(2-fluoroisonicotinamido)imidazo[1,2-b]pyridazin-6-yl)-4-(4-fluorophenyl)-1H-imidazol-1-yl)piperidine-1-carboxylate]
0.798 | 0.361 | CC(C)(F)C(=O)N1CCC(n2cnc(-c3ccc(F)cc3)c2-c2ccc3nc(NC(=O)c4ccnc(F)c4)cn3n2)CC1 [Compound 64, 2-fluoro-N-(6-(1-(1-(2-fluoro-2-methylpropanoyl)piperidin-4-yl)-4-(4-fluorophenyl)-1H-imidazol-5-yl)imidazo[1,2-6]pyridazin-2-yl)isonicotinamide]
0.545 | 0.213 | Cn1ccc(C(=O)N2CCC(n3cnc(-c4ccc(F)cc4)c3-c3ccc4nc(NC(=O)c5ccnc(F)c5)cn4n3)CC2)n1 [Compound 60, 2-fluoro-N-(6-(4-(4-fluorophenyl)-1-(1-(1-methyl-1H-pyrazole-3-carbonyl)piperidin-4-yl)-1H-imidazol-5-yl)imidazo[1,2-b]pyridazin-2-yl)isonicotinamide]
0.457 | 0.233 | CS(=O)(=O)CC(=O)N1CCC(n2cnc(-c3ccc(F)cc3)c2-c2ccc3nc(NC(=O)c4ccnc(F)c4)cn3n2)CC1 [Compound 58, 2-fluoro-N-(6-(4-(4-fluorophenyl)-1-(1-(2-(methylsulfonyl)acetyl)piperidin-4-yl)-1H-imidazol-5-yl)imidazo[1,2-b]pyridazin-2-yl)isonicotinamide]
